In US12692261B2, “Substituted heterocyclic compounds and therapeutic uses thereof” (Bayer Aktiengesellschaft, priority 2020, dated 2026):
Several values for one entry are separate records, joined by “and”; a condition that tells them apart may be missing. Equal entries are not always repeated. Where two headings read alike, the source gives them in different places.

Tests used:
[1] = biological target: T1, full-length human CSNK1A1 (Homo sapiens, UniProt P48729); assay: CSNK1A1 High ATP Assay (ADP-Glo, 1 mM ATP); format: biochemical; conditions: Table 3, read-out: CSNK1A1 high ATP assay IC50 [mol/l] (median);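 further: 30 min kinase reaction at 22 °C with 100 µM peptide substrate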
T1 construct: N-terminal Glutathion-S-Transferase (GST) and full-length human CSNK1A1; purchased Life Technologies PV4174; host or cells: baculovirus infected insect cells
Procedure, shortened: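 Kinase activity taken as ADP generated, quantified by ADP-Glo luminescence after 1 h ATP depletion and 1 h detection at 22 °C. Enzyme is GST–full-length human CSNK1A1 (insect cell-expressed), pre-bound to compound for 15 min, with phosphopeptide substrate and 1 mM ATP.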

[2] = biological target: T2, wild-type Epidermal Growth Factor Receptor (EGFR) (Homo sapiens, UniProt P00533); assay: WT-EGFR Kinase Assay (TR-FRET, 2 mM ATP); format: biochemical
T2 construct: a fragment of human EGFR (amino acids R669 to A1210); made in house; host or cells: Sf9 insect cells
Procedure, shortened: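 GST-fused human EGFR fragment (R669-A1210) from Sf9 cells, typically 7.6 pg/μL, pre-incubated with compound 15 min at 22° C in Hepes pH 7.0 buffer with MgCl2, DTT and vanadate; biotinylated peptide substrate. After EDTA stop, phosphopeptide detected by TR-FRET (anti-phosphotyrosine Tb-cryptate/streptavidin-XL665), 665/620 nm emission ratio.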

[3] = EGFR Wildtyp 2 mM ATP IC50 [mol/l] (median), Table 4
[4] = read-out: EGFR Wildtyp 2 mM ATP IC50 [mol/l] (median), Table 4

T2 sequence (P00533 669-1210): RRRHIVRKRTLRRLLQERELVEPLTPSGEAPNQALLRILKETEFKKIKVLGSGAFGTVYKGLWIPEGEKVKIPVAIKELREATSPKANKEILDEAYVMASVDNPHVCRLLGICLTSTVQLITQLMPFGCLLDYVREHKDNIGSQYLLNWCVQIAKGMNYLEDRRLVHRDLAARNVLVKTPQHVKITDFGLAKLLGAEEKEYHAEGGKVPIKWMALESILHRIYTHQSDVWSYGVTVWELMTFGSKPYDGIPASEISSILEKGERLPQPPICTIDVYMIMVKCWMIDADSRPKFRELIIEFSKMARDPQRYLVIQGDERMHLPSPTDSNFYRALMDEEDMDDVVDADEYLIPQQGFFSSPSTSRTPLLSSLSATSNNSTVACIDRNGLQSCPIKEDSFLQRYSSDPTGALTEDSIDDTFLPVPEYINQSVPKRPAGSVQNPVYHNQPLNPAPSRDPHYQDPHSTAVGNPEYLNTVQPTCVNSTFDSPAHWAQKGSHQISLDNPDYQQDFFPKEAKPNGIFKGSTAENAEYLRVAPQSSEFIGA
T1 sequence (P48729 whole entry): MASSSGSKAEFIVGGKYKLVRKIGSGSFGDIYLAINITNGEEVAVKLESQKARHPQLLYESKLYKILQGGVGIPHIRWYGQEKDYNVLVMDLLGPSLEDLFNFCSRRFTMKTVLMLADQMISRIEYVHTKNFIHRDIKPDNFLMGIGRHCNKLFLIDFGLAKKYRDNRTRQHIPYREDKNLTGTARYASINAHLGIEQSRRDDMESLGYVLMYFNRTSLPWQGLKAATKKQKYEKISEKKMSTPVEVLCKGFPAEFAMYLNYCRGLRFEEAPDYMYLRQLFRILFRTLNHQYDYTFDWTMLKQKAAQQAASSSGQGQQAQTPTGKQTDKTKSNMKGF

SMILES | IC50 [1] | IC50 [2, 3] | IC50 [2, 4]
O=C(Nc1cc(-c2[nH]c3c(O[C@H]4CCOC4)cc(F)nc3c2-c2ccccn2)ccn1)C(CC(F)F)c1ccc(F)cc1 (mixture of isomers) [Example 53, (2RS)-4,4-difluoro-N-{4-[5-fluoro-7-{[(3S)-oxolan-3-yl]oxy}-3-(pyridin-2-yl)-1H-pyrrolo[3,2-b]pyridin-2-yl]pyridin-2-yl}-2-(4-fluorophenyl)butanamide] | 6 nM | > 20000 nM | –
O=C(Nc1cc(-c2[nH]c3c(OC[C@@H]4COCCO4)cc(F)nc3c2-c2ccccn2)ccn1)C(CC(F)F)c1ccc(F)cc1 (mixture of isomers) [Example 57, (2RS)—N-(4-{7-[(2S)-1,4-dioxan-2-ylmethoxy]-5-fluoro-3-(pyridin-2-yl)-1H-pyrrolo[3,2-b]pyridin-2-yl}pyridin-2-yl)-4,4-difluoro-2-(4-fluorophenyl)butanamide] | 7.89 nM | > 20000 nM | –
O=C(Nc1cc(-c2[nH]c3c(O[C@H]4CCOC4)ncnc3c2-c2ccccn2)ccn1)C(CC(F)F)c1ccc(F)cc1 (mixture of isomers) [Example 72, (2RS)-4,4-difluoro-2-(4-fluorophenyl)-N-{4-[4-{[(3S)-oxolan-3-yl]oxy}-7-(pyridin-2-yl)-5H-pyrrolo[3,2-d]pyrimidin-6-yl]pyridin-2-yl}butanamide] | 7.1 nM | > 20000 nM | –
O=C(Nc1cc(-c2[nH]c3ccc(F)nc3c2-c2ccccn2)ccn1)C(CC(F)F)c1ccc(F)cc1 (racemic) [Example 1, 4,4-difluoro-2-(4-fluorophenyl)-N-{4-[5-fluoro-3-(pyridin-2-yl)-1H-pyrrolo[3,2-b]pyridin-2-yl]pyridin-2-yl}butanamide] | 61.3 nM | > 20000 nM | –
CN1CCN(c2cc(F)nc3c(-c4ccccn4)c(-c4ccnc(NC(=O)C(CC(F)F)c5ccc(F)cc5)c4)[nH]c23)CC1 (racemic) [Example 56, (2RS)-4,4-difluoro-N-{4-[5-fluoro-7-(4-methylpiperazin-1-yl)-3-(pyridin-2-yl)-1H-pyrrolo[3,2-b]pyridin-2-yl]pyridin-2-yl}-2-(4-fluorophenyl)butanamide] | 3.19 nM | > 20000 nM | –
O=C(Nc1cc(-c2[nH]c3nc(F)cnc3c2-c2ccccn2)ccn1)C(CC(F)F)c1ccc(F)cc1 (racemic) [Example 60, (2RS)-4,4-difluoro-2-(4-fluorophenyl)-N-{4-[3-fluoro-7-(pyridin-2-yl)-5H-pyrrolo[2,3-b]pyrazin-6-yl]pyridin-2-yl}butanamide] | 5.81 nM | > 20000 nM | –
O=C(Nc1cc(-c2[nH]c3c(OCC4CCCO4)cc(F)nc3c2-c2ccccn2)ccn1)C(CC(F)F)c1ccc(F)cc1 (racemic) [Example 61, (2RS)-4,4-difluoro-N-{4-[5-fluoro-7-{[(2RS)-oxolan-2-yl]methoxy}-3-(pyridin-2-yl)-1H-pyrrolo[3,2-b]pyridin-2-yl]pyridin-2-yl}-2-(4-fluorophenyl)butanamide] | 11.1 nM | > 20000 nM | –
O=C(Nc1cc(-c2[nH]c3ncc(F)nc3c2-c2ccccn2)ccn1)C(CC(F)F)c1ccc(F)cc1 (racemic) [Example 62, (2RS)-4,4-difluoro-2-(4-fluorophenyl)-N-{4-[2-fluoro-7-(pyridin-2-yl)-5H-pyrrolo[2,3-b]pyrazin-6-yl]pyridin-2-yl}butanamide] | 3.92 nM | > 20000 nM | –
O=C(Nc1cc(-c2[nH]c3ccnnc3c2-c2ccccn2)ccn1)C(CC(F)F)c1ccc(F)cc1 (racemic) [Example 65, (2RS)-4,4-difluoro-2-(4-fluorophenyl)-N-{4-[7-(pyridin-2-yl)-5H-pyrrolo[3,2-c]pyridazin-6-yl]pyridin-2-yl}butanamide] | 2.75 nM | > 20000 nM | –
O=C(Nc1cc(-c2[nH]c3cc(Cl)nnc3c2-c2ccccn2)ccn1)C(CC(F)F)c1ccc(F)cc1 (racemic) [Example 68, (2RS)—N-{4-[3-chloro-7-(pyridin-2-yl)-5H-pyrrolo[3,2-c]pyridazin-6-yl]pyridin-2-yl}-4,4-difluoro-2-(4-fluorophenyl)butanamide] | 6.93 nM | > 20000 nM | –
O=C(Nc1cc(-c2[nH]c3c(N4CCOCC4)cc(F)nc3c2-c2ccccn2)ccn1)C(CC(F)F)c1ccc(F)cc1 (racemic) [Example 69, (2RS)-4,4-difluoro-N-{4-[5-fluoro-7-(morpholin-4-yl)-3-(pyridin-2-yl)-1H-pyrrolo[3,2-b]pyridin-2-yl]pyridin-2-yl}-2-(4-fluorophenyl)butanamide] | 10.4 nM | > 20000 nM | –
O=C(Nc1cc(-c2[nH]c3ccc(Cl)nc3c2-c2ccccn2)ccn1)C(CC(F)F)c1ccc(F)cc1 (racemic) [Example 70, (2RS)—N-{4-[5-chloro-3-(pyridin-2-yl)-1H-pyrrolo[3,2-b]pyridin-2-yl]pyridin-2-yl}-4,4-difluoro-2-(4-fluorophenyl)butanamide] | 5.43 nM | > 20000 nM | –
O=C(Nc1cc(-c2[nH]c3cc(F)cnc3c2-c2ccccn2)ccn1)C(CO)c1ccc(F)cc1 (racemic) [Example 71, (2RS)—N-(4-(6-fluoro-3-(pyridin-2-yl)-1H-pyrrolo[3,2-b]pyridin-2-yl)pyridin-2-yl)-2-(4-fluorophenyl)-3-hydroxypropanamide] | 8.21 nM | > 20000 nM | –
O=C(Nc1cc(-c2[nH]c3c(OCC(F)F)ncnc3c2-c2ccccn2)ccn1)C(CC(F)F)c1ccc(F)cc1 (racemic) [Example 78, (2RS)—N-{4-[4-(2,2-difluoroethoxy)-7-(pyridin-2-yl)-5H-pyrrolo[3,2-d]pyrimidin-6-yl]pyridin-2-yl}-4,4-difluoro-2-(4-fluorophenyl)butanamide] | 5.16 nM | > 20000 nM | –
O=C(Nc1cc(-c2[nH]c3c(N4CCNCC4)ccnc3c2-c2ccccn2)ccn1)C(CC(F)F)c1ccc(F)cc1 (racemic) [Example 92, (2RS)-4,4-difluoro-2-(4-fluorophenyl)-N-{4-[7-(piperazin-1-yl)-3-(pyridin-2-yl)-1H-pyrrolo[3,2-b]pyridin-2-yl]pyridin-2-yl}butanamide] | 2.35 nM | > 20000 nM | –
O=C(Nc1cc(-c2[nH]c3ccc(F)nc3c2-c2ccccn2)ccn1)[C@@H](CC(F)F)c1ccc(F)cc1 (single isomer, unassigned) [Example 2] | 5 nM | 18400 nM and > 20000 nM | –
O=C(Nc1cc(-c2[nH]c3c(OC[C@H]4COCCO4)cc(F)nc3c2-c2ccccn2)ccn1)C(CC(F)F)c1ccc(F)cc1 (single isomer, unassigned) [Example 51, (2R or S)—N-{4-[7-{[(2R)-1,4-dioxan-2-yl]methoxy}-5-fluoro-3-(pyridin-2-yl)-1H-pyrrolo[3,2-b]pyridin-2-yl]pyridin-2-yl}-4,4-difluoro-2-(4-fluorophenyl)butanamide] | 4.65 nM | > 20000 nM | –
O=C(Nc1cc(-c2[nH]c3c(OC[C@H]4COCCO4)cc(F)nc3c2-c2ccccn2)ccn1)C(CC(F)F)c1ccc(F)cc1 (single isomer, unassigned) [Example 52, (2R or S)—N-{4-[7-{[(2R)-1,4-dioxan-2-yl]methoxy}-5-fluoro-3-(pyridin-2-yl)-1H-pyrrolo[3,2-b]pyridin-2-yl]pyridin-2-yl}-4,4-difluoro-2-(4-fluorophenyl)butanamide] | 17.2 nM | – | > 20000 nM
O=C(Nc1cc(-c2[nH]c3c(O[C@H]4CCOC4)cc(F)nc3c2-c2ccccn2)ccn1)C(CC(F)F)c1ccc(F)cc1 (single isomer, unassigned) [Example 54, (2R or S)-4,4-difluoro-N-{4-[5-fluoro-7-{[(3S)-oxolan-3-yl]oxy}-3-(pyridin-2-yl)-1H-pyrrolo[3,2-b]pyridin-2-yl]pyridin-2-yl}-2-(4-fluorophenyl)butanamide] | 4.22 nM | > 20000 nM | –
O=C(Nc1cc(-c2[nH]c3c(O[C@H]4CCOC4)cc(F)nc3c2-c2ccccn2)ccn1)C(CC(F)F)c1ccc(F)cc1 (single isomer, unassigned) [Example 55, (2R or S)-4,4-difluoro-N-{4-[5-fluoro-7-{[(3S)-oxolan-3-yl]oxy}-3-(pyridin-2-yl)-1H-pyrrolo[3,2-b]pyridin-2-yl]pyridin-2-yl}-2-(4-fluorophenyl)butanamide] | 18.3 nM | – | > 20000 nM
O=C(Nc1cc(-c2[nH]c3c(OC[C@@H]4COCCO4)cc(F)nc3c2-c2ccccn2)ccn1)C(CC(F)F)c1ccc(F)cc1 (single isomer, unassigned) [Example 58, (2R or S)—N-{4-[7-{[(2S)-1,4-dioxan-2-yl]methoxy}-5-fluoro-3-(pyridin-2-yl)-1H-pyrrolo[3,2-b]pyridin-2-yl]pyridin-2-yl}-4,4-difluoro-2-(4-fluorophenyl)butanamide] | 3.56 nM | > 20000 nM | –
O=C(Nc1cc(-c2[nH]c3c(OC[C@@H]4COCCO4)cc(F)nc3c2-c2ccccn2)ccn1)C(CC(F)F)c1ccc(F)cc1 (single isomer, unassigned) [Example 59, (2R or S)—N-{4-[7-{[(2S)-1,4-dioxan-2-yl]methoxy}-5-fluoro-3-(pyridin-2-yl)-1H-pyrrolo[3,2-b]pyridin-2-yl]pyridin-2-yl}-4,4-difluoro-2-(4-fluorophenyl)butanamide] | 12.7 nM | – | > 20000 nM
